Measurements from patent US20240166637A1, “COMPOUNDS AND METHODS FOR TREATING MALARIA” (Microbiotix, Inc., priority 2021, published 2024).
Values after ≈ are worked out from the molar mass of the structure shown. Where two headings read alike, the source gives them in different places.

Assays:
Caco-2 permeability = format: in vitro ADME; details: human, Caco-2; read-out: Papp, Caco-2 cell monolayer
Method: (§1) The Caco-2 assay is an indicator of the potential oral bioavailability of the inhibitor compound. Caco-2 cells were applied to wells of a collagen-coated BioCoat Cell Environment (BD Biosciences) plate as described (Duraisingh, M., and A. Cowman, Acta Trop., 94:181-190 (2005)). The test agent was added to the apical (A) side and the amount of permeation was determined on the basolateral (B) side by LC/MS/MS analysis. The amount of material on the A and B sides were used to calculate a Papp value (Caco-2 Papp).

Serum stability (MSS) = format: in vitro ADME; details: mouse serum exposure; for MSS % consumed: after 60 minutes
Excerpt: The microsome and serum stability assays measure the stability of the inhibitor compounds when exposed to the liver and to serum in vivo. For serum stability, inhibitor compounds were exposed to 55% mouse serum and the resulting samples analyzed by LC/MS to quantitate the remaining parent. […]

[1] = Protein binding in mouse serum by equilibrium dialysis; format: in vitro ADME
PSAC = assay: Transport inhibition assay: PSAC block by osmotic lysis of infected cells in sorbitol (transmittance); format: cell-based, P. falciparum; details: for PSAC K0.5: Table 6
Method: Transport experiments were conducted to examine the affinity of the inhibitor compounds for PSAC. Inhibitor affinity for blocking PSAC was determined using a quantitative transmittance assay which is based on the osmotic lysis of infected cells with sorbitol (Desai, S., and A. Pillai, U.S. Pat. No. 8,618,090, supra (2013); Dondorp et al., supra (2009); Hooft van Huijsduijnen, R., and T. N. Wells, supra (2018)). Malaria parasite cultures were enriched at the trophozoite stage via the Percoll-sorbitol method (Pillai et al., Mol. Pharmacol., 82:1104-1114 (2012); Pillai et al., Mol. Pharmacol., 77:724-733 (2010); Wagner et al., Biophys. J., 84:116-123 (2003)), washed, and resuspended at 37° C. and 0.15% hematocrit in 280 mM sorbitol, 20 mM Na-HEPES, 0.1 mg/ml bovine serum albumin, pH 7.4, with the indicated concentrations of inhibitor compounds. Osmotic lysis, resulting from PSAC-mediated sorbitol uptake, was continuously tracked with transmittance measurements through the cell suspension (700-nm wavelength, DU640 spectrophotometer with Peltier temperature control; Beckman Coulter, Fullerton, CA).
Inhibitor dose-response relationships (K0.5 values) were calculated from the times required to reach a fractional lysis threshold. K0.5 estimates obtained with the osmotic lysis assay match those obtained using cell-attached and whole-cell patch-clamp assays (Alkhalil et al., Blood, 104:4279-4286 (2004); Dondorp et al., N. Engl. J. Med., 361:455-467 (2009)), confirming a quantitatively robust and valid assay.

[2] = Mammalian cytotoxicity, HeLa cells, 72 hr, MTS; format: cell-based, human; details: human, HeLa cells; for CC50 at 72 h: 3 days
Method: (§2) Cytotoxicity of the inhibitor compounds was quantified using human HeLa cells (CLL-2; American Type Culture Collection, Manassas, VA) seeded at 4000 cells/well in 96-well plates. Cultures were incubated with individual inhibitor compounds for 72 hr at 37° C. in minimal essential medium (Invitrogen) supplemented with 10% fetal calf serum.

human HeLa cells = assay: Mammalian cytotoxicity, HeLa cells, 72 hr, MTS; format: cell-based
Method: as §2

CYP3A4 = CYP3A4 (Homo sapiens, UniProt P08684); assay: Cytochrome P450 inhibition, fluorogenic substrate assay; format: in vitro ADME
Excerpt: To measure Cytochrome P450 inhibition, a fluorogenic substrate assay was used to measure inhibitor compound interference with enzymes that metabolize drugs in vivo (Houston, J., Biochem. Pharmacol., 47:1469-1479 (1994)).

[3] = Solubility by nephelometric method; format: physicochemical
Method: The solubility of the inhibitor compounds was determined by the nephelometric method (Bevan, C., and R. Lloyd, supra (2000)). A high-throughput screening method for the determination of aqueous drug solubility using laser nephelometry in microtiter plates. The compounds were serially diluted in DMSO and then added to water. […] Additionally, to confirm the nephelometry results, compounds were stirred with a test vehicle (deionized water, PBS, or D5W) at 20° C. for 4 hours. Additional compound was added if complete dissolution was obtained. The mixture was then filtered and the filtrate assayed by HPLC to quantify the amount of compound in solution (Solubility).

P. falciparum = assay: In vitro parasite growth inhibition in PGIM (SYBR Green I); format: cell-based
Method: P. falciparum laboratory lines were propagated at the asexual stage with standard methods, in RPMI 1640 medium supplemented with 25 mM HEPES, 31 mM NaHCO3, 0.37 mM hypoxanthine, 10 μg/ml gentamicin, and 10% pooled human serum. Nutrient deprivation experiments utilized standard PSAC Growth Inhibition Medium (PGIM) but with reduced concentrations of individual ingredients. Human serum was exhaustively dialyzed against distilled water before addition to those media. The PGIM contained reduced concentrations of isoleucine (11.4 μM), glutamine (102 μM), and hypoxanthine (3.01 μM) and was supplemented with the dialyzed human serum. Growth inhibition experiments (Burrows et al., Parasitology, 141:128-139 (2013)) were quantified by using a SYBR Green I-based fluorescence assay for parasite nucleic acid in 96-well microplates, as described previously (Dondorp et al., supra (2009)). Ring-stage synchronized cultures were seeded at 1% parasitemia and 2% hematocrit levels in standard medium or PGIM and were maintained for 72 hr at 37° C. in 5% O2/5% CO2 in nitrogen, without medium changes. Cultures were then lysed in 20 mM Tris, 10 mM EDTA, 0.016% saponin, 1.6% Triton X-100, pH 7.5, with SYBR Green I nucleic acid gel stain (Invitrogen, Carlsbad, CA) at 5000-fold dilution.
After a […] incubation, parasite DNA contents were quantified through fluorescence measurements (excitation, 485 nm; emission, 528 nm). Results were presented as IC50 values, defined as the concentration of inhibitor which decreases P. falciparum (Pf) DNA content by 50% (IC50 PGIM).

[4] = Microsome stability (MLMS); format: in vitro ADME, mouse; details: murine liver microsomes; for MLMS % consumed: after 30 min.
Method: The microsome and serum stability assays measure the stability of the inhibitor compounds when exposed to the liver and to serum in vivo. For microsomal stability measurements, inhibitor compounds were incubated with mouse microsomal proteins in buffer with NADPH (Bevan, C. and R. Lloyd, Anal. Chem., 72:1781-1787 (2000)) and the resulting samples were analyzed by LC/MS to quantitate the remaining parent. The data are calculated as percent of parent remaining.

Caco-2 cells = assay: Caco-2 permeability; format: in vitro ADME; details: apical to basolateral
Method: as §1

CD-1 mice = assay: Murine tolerability; details: not dose-related, considered formulation-related
Method: Tolerability. The test compounds were dissolved at concentrations of 1 to 10 mg/mL in various formulations (5% DMSO, 5% cremophor, 80% PEG-300 or 10% DMSO, 80% PEG-400, 1% Polysorbate 80). Male CD-1 mice were dosed with 4 dose levels of each test compound (vehicle control plus 3 dose levels ranging from 10-200 mg/kg as described in Table 8) of test compound by the intravenous (IV), intraperitoneal (IP) or oral (PO) route. Clinical observations described in Table 8 were made at various time points out to 24 hours after which mice were humanely euthanized.
Animals were monitored for 24 hours for signs of toxicity.

[5] = test system: P. falciparum Pf3D70087/N9; assay: Murine efficacy, humanized NSG mouse model infected with P. falciparum; format: in vivo
Method: (§3) Tolerability. […] Pharmacokinetics (PK). […] PK parameters were calculated using the WinNonLin program. Efficacy.
In a second study, NSG mice were treated with either 25 mg/kg or 50 mg/kg of MBX 4055 either once or twice daily for 4 days by the oral route. […] Percent parasitemia was measured daily for 5 days as were the plasma levels of MBX 3318 and 4055.
Humanized NSG mice infected with P. falciparum were treated with 100 mg/kg of MBX 3318 twice daily for 4 days by the PO route. Control mice were treated with vehicle alone (10% DMSO, 80% PEG400, 1% Polysorbate 80). […] During the assay, blood samples were taken from mice treated with MBX 3318 to measure the levels of compound (FIG. 2B).
The murine model was also employed against MBX 4055. Humanized NSG mice infected with P. falciparum were treated with 25 or 50 mg/kg of MBX 4055 twice daily or 50 mg/kg once daily, for 4 days by the PO route. […] Unfortunately, the remaining mice that were dosed twice daily, including the vehicle-only mouse died within 2-5 days due to the apparent toxicity of the Labrasol-containing vehicle. During the assay, blood samples were taken from mice treated with MBX 4055 to measure the levels of compound (FIG. 3B).

[6] = mouse, in vivo
Method: as §3

[7] = mouse serum, equilibrium dialysis

Sequence of CYP3A4 (P08684 whole entry, species assumed): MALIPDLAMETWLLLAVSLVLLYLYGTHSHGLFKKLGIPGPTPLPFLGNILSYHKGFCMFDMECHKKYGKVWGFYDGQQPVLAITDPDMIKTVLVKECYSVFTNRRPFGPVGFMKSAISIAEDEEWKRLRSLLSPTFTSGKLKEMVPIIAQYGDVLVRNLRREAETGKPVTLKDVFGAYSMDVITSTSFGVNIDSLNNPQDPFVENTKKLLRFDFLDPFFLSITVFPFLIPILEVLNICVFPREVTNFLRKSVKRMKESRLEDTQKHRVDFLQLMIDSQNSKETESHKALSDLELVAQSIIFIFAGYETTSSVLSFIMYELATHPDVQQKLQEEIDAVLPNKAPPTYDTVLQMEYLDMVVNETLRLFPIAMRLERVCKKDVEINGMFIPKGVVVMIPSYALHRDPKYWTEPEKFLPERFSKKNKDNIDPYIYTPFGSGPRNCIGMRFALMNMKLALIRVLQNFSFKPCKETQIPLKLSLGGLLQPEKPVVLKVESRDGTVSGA

Q: Which Papp A→B (Caco-2 permeability) does the source give for `Cc1ccc(C)c(N2CCN(S(=O)(=O)c3ccc(-c4ccc(=O)[nH]n4)s3)CC2)c1` [ISG-21, reference compound] here?
A: < 0.5 ×10⁻⁶ cm/s

Q: And the “MSS (% cons)” value (Serum stability (MSS); % consumed after 60 minutes, Table 4)?
A: 0 % cons

Q: And the MSS % consumed (Serum stability (MSS))?
A: 0 % consumed

Q: And the “binding by serum proteins” value [1]?
A: highly bound by serum proteins

Q: What about the “Mouse PB % bound” value [1, 7] of the same compound?
A: 100 % bound

Q: What about the fraction unbound ([1]; mouse serum, equilibrium dialysis, Table 4, read-out: PPB, percent protein bound) of the same compound?
A: 0.001

Q: And the “K0.5, activity in the PSAC assay” value (PSAC; Table 3)?
A: 0.003 µM

Q: And the “PSAC K0.5” value (PSAC)?
A: 0.003 µM

Q: What about the CC50 at 72 h ([2]; Table 3, read-out: CC50, cytotoxicity against HeLa cells) of the same compound?
A: 86000 nM

Q: And the selectivity ratio at 72 h ([2]; HeLa CC50 divided by growth inhibition IC50)?
A: 37000

Q: What about the “SI CC50/PSAC K0.5” value (human HeLa cells; HeLa CC50 / PSAC K0.5) of the same compound?
A: 28,700

Q: And the “Cyp 3A4 % inhib. at 5 μM” value (CYP3A4)?
A: 0 % inhib.

Q: What about the inhibition at 5 µM (CYP3A4; human, Table 4, read-out: Cyp 3A4 % Inhib) of the same compound?
A: 0%

Q: What about the solubility ([3]; water, kinetic from dmso stock, H2O, Table 4, read-out: Sol., solubility limit in H2O) of the same compound?
A: 25 µM (≈ 10.8 µg/mL)

Q: What about the IC50 (P. falciparum; Plasmodium falciparum, Pf growth inhibition in PGIM, 72 hr, read-out: IC50 PGIM) of the same compound?
A: 2 nM

Q: And the IC50 (P. falciparum; Plasmodium falciparum, Table 3, read-out: IC50, Pf growth inhibition in PGIM)?
A: 2 nM

Q: What about the “MLMS (% cons)” value ([4]; % consumed after 30 min., Table 4) of the same compound?
A: 17 % cons

Q: What about the MLMS % consumed [4] of the same compound?
A: 17 % consumed

Q: For `N#Cc1cccnc1N1CCN(S(=O)(=O)c2ccc(-c3ccc(=O)[nH]n3)s2)CC1` [MBX-2997, 2-(4-((5-(6-oxo-1,6-dihydropyridazin-3-yl)thiophen-2-yl)sulfonyl)piperazin-1-yl)nicotinonitrile], which “PSAC K0.5” value (PSAC) is on record?
A: 0.007 µM

Q: What about the CC50 at 72 h ([2]; Table 6, read-out: HeLa CC50) of the same compound?
A: > 200000 nM

Q: And the “SI CC50/PSAC K0.5” value (human HeLa cells; HeLa CC50 / PSAC K0.5)?
A: >28,500

Q: And the solubility ([3]; water, kinetic from dmso stock, solubility limit in H2O, read-out: Solubility)?
A: 25 µM (≈ 10.7 µg/mL)

Q: And the IC50 (P. falciparum; Plasmodium falciparum, 72 h, read-out: IC50 PGIM)?
A: 38 nM

Q: With `Cc1nccnc1N1CCN(S(=O)(=O)c2ccc(-c3ccc(=O)[nH]n3)s2)CC1` [MBX-4055] as the compound, how does the “Caco-2 Papp” value (Caco-2 cells) read?
A: 7.8 ×10⁻⁶ cm/s

Q: And the “signs of toxicity, PO dosing” value (CD-1 mice)?
A: some slight lethargy

Q: And the MSS % consumed (Serum stability (MSS))?
A: 5 % consumed

Q: What about the “reduction of parasite growth with respect to control mice” value ([5]; humanized NSG mouse, 50 mg/kg once daily for 4 days, PO) of the same compound?
A: over 90%

Q: And the “blood levels of compound compared with IC50 in vitro” value ([5]; infected NSG mice treated with MBX 4055 PO, FIG. 3B)?
A: well above the IC50 in vitro

Q: What about the “Mouse PB % bound” value [1, 7] of the same compound?
A: 94 % bound

Q: What about the “PSAC K0.5” value (PSAC) of the same compound?
A: 0.021 µM

Q: What about the CC50 (human HeLa cells; 3 days, Table 6, read-out: HeLa CC50) of the same compound?
A: > 200000 nM

Q: And the “SI CC50/PSAC K0.5” value (human HeLa cells; HeLa CC50 / PSAC K0.5)?
A: >9,524

Q: What about the “Cyp 3A4 % inhib. at 5 μM” value (CYP3A4) of the same compound?
A: 0 % inhib.

Q: And the solubility ([3]; solubility limit in H2O, read-out: Solubility)?
A: 25 µM (≈ 10.5 µg/mL)

Q: And the “% F (oral bioavailability)” value [6]?
A: 66%

Q: What about the “half-lives (FIG. 1, clearance rates)” value [6] of the same compound?
A: favorable half-lives

Q: What about the AUClast ([6]; iv, 10 mg/kg) of the same compound?
A: 34,275 hr*ng/mL

Q: What about the Clearance ([6]; iv, 10 mg/kg) of the same compound?
A: 6.53 mL/min/kg

Q: And the Half-life ([6]; iv, 10 mg/kg)?
A: 1.39 h

Q: What about the Mean residence time ([6]; iv, 10 mg/kg) of the same compound?
A: 1.35 h

Q: What about the VD ([6]; iv, 10 mg/kg) of the same compound?
A: 0.786 L/kg

Q: What about the “increase in normalized exposure relative to MBX 3318” value ([6]; po) of the same compound?
A: > 30 fold

Q: And the AUClast ([6]; po, 30 mg/kg)?
A: 67,501 hr*ng/mL

Q: And the Cmax ([6]; po, 30 mg/kg)?
A: 11,733 ng/mL

Q: And the Half-life ([6]; po, 30 mg/kg)?
A: 2.27 h

Q: What about the “Normalized AUC” value ([6]; po, 30 mg/kg) of the same compound?
A: 22,500

Q: And the Tmax ([6]; po, 30 mg/kg)?
A: 1 h

Q: What about the IC50 (P. falciparum; Pf growth inhibition in PGIM, 72 hr, read-out: IC50 PGIM) of the same compound?
A: 42 nM

Q: And the MLMS % consumed [4]?
A: 47 % consumed

Q: Which “PSAC K0.5” value (PSAC) does the source give for `N#Cc1ccncc1N1CCN(C(=O)c2ccc(C(=O)N3CCCC3)s2)CC1` [MBX-4075] here?
A: 1.08 µM

Q: What about the CC50 (human HeLa cells) of the same compound?
A: > 200000 nM

Q: What about the “SI CC50/PSAC K0.5” value (human HeLa cells) of the same compound?
A: >185
